Test in all cases: AK assay 384-well format, Prestwick library screening
Experiment [1] concerns S. aureus strain USA300-0114. The format is cell-based, Staphylococcus aureus. Conditions: 50 μM final drug concentration; for fold induction at 50 µM: Staphylococcus aureus, USA300, 3 h.
The test system of experiment [2] is E. faecium. The format is cell-based, Enterococcus faecium. As to conditions: 50 μM final drug concentration; for fold induction at 50 µM: Enterococcus faecium, 3 h.
Experiment [3] relates to P. aeruginosa. The format is cell-based, Pseudomonas aeruginosa. As to conditions: 50 μM final drug concentration; for fold induction at 50 µM: Pseudomonas aeruginosa, 3 h.
For experiment [4], the system named is E. cloacae. The format is cell-based, Enterobacter cloacae. As to conditions: 50 μM final drug concentration; for fold induction at 50 µM: Enterobacter cloacae, 3 h.
Experiment [5] concerns K. pneumoniae. The experiment is classed as cell-based, Klebsiella pneumoniae. As to conditions: 50 μM final drug concentration; for fold induction at 50 µM: Klebsiella pneumoniae, 3 h.
In experiment [6] the test system is E. coli. The format is cell-based, Escherichia coli. As to conditions: 50 μM final drug concentration; for fold induction at 50 µM: Escherichia coli, 3 h.
Experiment [7] deals with A. baumannii strain 98-37-09. The format is cell-based, Acinetobacter baumannii. Conditions: 50 μM final drug concentration; for fold induction at 50 µM: Acinetobacter baumannii, 983709, 3 h.

Where a name gives a salt, the structure may show the parent alone. Read-outs that look alike come from different tables or passages of the source.

Regarding `c1ccc([C@H]2CN3CCSC3=N2)cc1` [Levamisole hydrochloride], the fold induction at 50 µM in experiment [1] (384-well format, cutoff for positive-scoring molecules 3-fold increase, read-out: AK-based Prestwick Library Screening Results, S. aureus (increase in extracellular AK activity)) stood at 0.9; in experiment [2] (384-well format, cutoff for positive-scoring molecules 3-fold increase, read-out: AK-based Prestwick Library Screening Results, E. faecium (increase in extracellular AK activity)), 1; in experiment [3] (384-well format, cutoff for positive-scoring molecules 3-fold increase, read-out: AK-based Prestwick Library Screening Results, P. aeruginosa (increase in extracellular AK activity)) it was 1; in experiment [4] (384-well format, cutoff for positive-scoring molecules 3-fold increase, read-out: AK-based Prestwick Library Screening Results, E. cloacae (increase in extracellular AK activity)) it was 1; in experiment [5] (384-well format, cutoff for positive-scoring molecules 3-fold increase, read-out: AK-based Prestwick Library Screening Results, K. pneumoniae (increase in extracellular AK activity)), 0.7; in experiment [6] (384-well format, cutoff for positive-scoring molecules 3-fold increase, read-out: AK-based Prestwick Library Screening Results, E. coli (increase in extracellular AK activity)) it was 1. The fold induction at 50 µM in experiment [7] (384-well format, cutoff for positive-scoring molecules 3-fold increase, read-out: AK-based Prestwick Library Screening Results, A. baumannii (increase in extracellular AK activity)) is 1.1.

With `CNCCC(Oc1ccc(C(F)(F)F)cc1)c1ccccc1` (stereo not shown) [Fluoxetine hydrochloride], the fold induction at 50 µM in experiment [1] (planktonic S. aureus, cutoff for positive-scoring molecules 3-fold increase, read-out: AK-based Prestwick Library Screening Results, S. aureus (increase in extracellular AK activity)) was found to be 1.1; in experiment [2] (planktonic E. faecium, cutoff for positive-scoring molecules 3-fold increase, read-out: AK-based Prestwick Library Screening Results, E. faecium (increase in extracellular AK activity)), 0.9; in experiment [3] (planktonic P. aeruginosa, cutoff for positive-scoring molecules 3-fold increase, read-out: AK-based Prestwick Library Screening Results, P. aeruginosa (increase in extracellular AK activity)), 0.9; in experiment [4] (planktonic E. cloacae, cutoff for positive-scoring molecules 3-fold increase, read-out: AK-based Prestwick Library Screening Results, E. cloacae (increase in extracellular AK activity)) it was 1.1; in experiment [5] (planktonic K. pneumoniae, cutoff for positive-scoring molecules 3-fold increase, read-out: AK-based Prestwick Library Screening Results, K. pneumoniae (increase in extracellular AK activity)) it was 0.8; in experiment [6] (planktonic E. coli, cutoff for positive-scoring molecules 3-fold increase, read-out: AK-based Prestwick Library Screening Results, E. coli (increase in extracellular AK activity)), 1. Moreover, in experiment [7] (planktonic A. baumannii, cutoff for positive-scoring molecules 3-fold increase, read-out: AK-based Prestwick Library Screening Results, A. baumannii (increase in extracellular AK activity)), the fold induction at 50 µM amounted to 1.

Turning to `CC(=O)Oc1cc(C(F)(F)F)ccc1C(=O)O` [Triflusal], the fold induction at 50 µM in experiment [1] (planktonic, […], read-out: AK-based Prestwick Library Screening Results, S. aureus (fold increase in extracellular AK activity)) was 1.4; in experiment [2] (planktonic, […], read-out: AK-based Prestwick Library Screening Results, E. faecium (fold increase in extracellular AK activity)) it was 1; in experiment [3] (planktonic, […], read-out: AK-based Prestwick Library Screening Results, P. aeruginosa (fold increase in extracellular AK activity)) it was 1.2; in experiment [4] (planktonic, […], read-out: AK-based Prestwick Library Screening Results, E. cloacae (fold increase in extracellular AK activity)), 1.3; in experiment [5] (planktonic, […], read-out: AK-based Prestwick Library Screening Results, K. pneumoniae (fold increase in extracellular AK activity)), 0.9; in experiment [6] (planktonic, […], read-out: AK-based Prestwick Library Screening Results, E. coli (fold increase in extracellular AK activity)) it was 1.2. In experiment [7] (planktonic, […], read-out: AK-based Prestwick Library Screening Results, A. baumannii (fold increase in extracellular AK activity)), the fold induction at 50 µM turned out to be 1.

For Thioproperazine dimesylate, in experiment [1] (planktonic S. aureus, 384-well, cutoff for positive-scoring molecules 3-fold increase), the “AK-based Prestwick Library Screening Results: S. aureus (increase in extracellular AK activity)” value is 1.0. In experiment [2] (planktonic E. faecium, 384-well, cutoff for positive-scoring molecules 3-fold increase), the “AK-based Prestwick Library Screening Results: E. faecium (increase in extracellular AK activity)” value stood at 1.0. In addition, the “AK-based Prestwick Library Screening Results: P. aeruginosa (increase in extracellular AK activity)” value in experiment [3] (planktonic P. aeruginosa, 384-well, cutoff for positive-scoring molecules 3-fold increase) came out at 1.1. Moreover, the “AK-based Prestwick Library Screening Results: E. cloacae (increase in extracellular AK activity)” value in experiment [4] (planktonic E. cloacae, 384-well, cutoff for positive-scoring molecules 3-fold increase) was determined as 1.3. In addition, in experiment [5] (planktonic K. pneumoniae, 384-well, cutoff for positive-scoring molecules 3-fold increase), the “AK-based Prestwick Library Screening Results: K. pneumoniae (increase in extracellular AK activity)” value came to 1.1. The “AK-based Prestwick Library Screening Results: E. coli (increase in extracellular AK activity)” value in experiment [6] (planktonic E. coli, 384-well, cutoff for positive-scoring molecules 3-fold increase) is given as 1.5. Besides, in experiment [7] (planktonic A. baumannii, 384-well, cutoff for positive-scoring molecules 3-fold increase), the “AK-based Prestwick Library Screening Results: A. baumannii (increase in extracellular AK activity)” value stood at 1.7.

For `OCCOCCN1CCN(C(c2ccccc2)c2ccc(Cl)cc2)CC1` (stereo not shown) [Hydroxyzine dihydrochloride], the fold induction at 50 µM is 0.9 in experiment [1] (planktonic S. aureus, 384-well, cutoff for positive-scoring molecules 3-fold increase, read-out: AK-based Prestwick Library Screening Results: S. aureus (increase in extracellular AK activity)); 0.9 in experiment [2] (planktonic E. faecium, 384-well, cutoff for positive-scoring molecules 3-fold increase, read-out: AK-based Prestwick Library Screening Results: E. faecium (increase in extracellular AK activity)); 1 in experiment [3] (planktonic P. aeruginosa, 384-well, cutoff for positive-scoring molecules 3-fold increase, read-out: AK-based Prestwick Library Screening Results: P. aeruginosa (increase in extracellular AK activity)); 1.6 in experiment [4] (planktonic E. cloacae, 384-well, cutoff for positive-scoring molecules 3-fold increase, read-out: AK-based Prestwick Library Screening Results: E. cloacae (increase in extracellular AK activity)); 0.8 in experiment [5] (planktonic K. pneumoniae, 384-well, cutoff for positive-scoring molecules 3-fold increase, read-out: AK-based Prestwick Library Screening Results: K. pneumoniae (increase in extracellular AK activity)); 1 in experiment [6] (planktonic E. coli, 384-well, cutoff for positive-scoring molecules 3-fold increase, read-out: AK-based Prestwick Library Screening Results: E. coli (increase in extracellular AK activity)). For the same molecule, the fold induction at 50 µM in experiment [7] (planktonic A. baumannii, 384-well, cutoff for positive-scoring molecules 3-fold increase, read-out: AK-based Prestwick Library Screening Results: A. baumannii (increase in extracellular AK activity)) is 1.

Regarding `COc1c(O)cc2c(c1O)[C@@H]1O[C@H](CO)[C@@H](O)[C@H](O)[C@H]1OC2=O` [Bergenin monohydrate], the fold induction at 50 µM in experiment [1] (planktonic, cutoff for positive-scoring molecules 3-fold increase, read-out: AK-based Prestwick Library Screening Results, S. aureus (fold increase in extracellular AK activity)) was 0.9; in experiment [2] (planktonic, cutoff for positive-scoring molecules 3-fold increase, read-out: AK-based Prestwick Library Screening Results, E. faecium (fold increase in extracellular AK activity)), 0.9; in experiment [3] (planktonic, cutoff for positive-scoring molecules 3-fold increase, read-out: AK-based Prestwick Library Screening Results, P. aeruginosa (fold increase in extracellular AK activity)) it was 0.8; in experiment [4] (planktonic, cutoff for positive-scoring molecules 3-fold increase, read-out: AK-based Prestwick Library Screening Results, E. cloacae (fold increase in extracellular AK activity)), 1.1; in experiment [5] (planktonic, cutoff for positive-scoring molecules 3-fold increase, read-out: AK-based Prestwick Library Screening Results, K. pneumoniae (fold increase in extracellular AK activity)) it was 0.8; in experiment [6] (planktonic, cutoff for positive-scoring molecules 3-fold increase, read-out: AK-based Prestwick Library Screening Results, E. coli (fold increase in extracellular AK activity)) it was 0.7. The fold induction at 50 µM in experiment [7] (planktonic, cutoff for positive-scoring molecules 3-fold increase, read-out: AK-based Prestwick Library Screening Results, A. baumannii (fold increase in extracellular AK activity)) came out at 0.9.

`CCOc1cc(CC(=O)N[C@@H](CC(C)C)c2ccccc2N2CCCCC2)ccc1C(=O)O` [Repaglinide]: the fold induction at 50 µM in experiment [1] (cutoff for positive-scoring molecules 3-fold increase, read-out: AK-based Prestwick Library Screening Results, S. aureus (fold increase in extracellular AK activity)) worked out at 0.3; in experiment [2] (cutoff for positive-scoring molecules 3-fold increase, read-out: AK-based Prestwick Library Screening Results, E. faecium (fold increase in extracellular AK activity)), 0.9; in experiment [3] (cutoff for positive-scoring molecules 3-fold increase, read-out: AK-based Prestwick Library Screening Results, P. aeruginosa (fold increase in extracellular AK activity)) it was 0.4; in experiment [4] (cutoff for positive-scoring molecules 3-fold increase, read-out: AK-based Prestwick Library Screening Results, E. cloacae (fold increase in extracellular AK activity)) it was 0.4; in experiment [5] (cutoff for positive-scoring molecules 3-fold increase, read-out: AK-based Prestwick Library Screening Results, K. pneumoniae (fold increase in extracellular AK activity)) it was 0.4; in experiment [6] (cutoff for positive-scoring molecules 3-fold increase, read-out: AK-based Prestwick Library Screening Results, E. coli (fold increase in extracellular AK activity)) it was 0.4. Also, in experiment [7] (cutoff for positive-scoring molecules 3-fold increase, read-out: AK-based Prestwick Library Screening Results, A. baumannii (fold increase in extracellular AK activity)), the fold induction at 50 µM amounted to 0.4.

The values above are taken from patent US10004701B2, “Methods and compositions for treating infection” (UNIVERSITY OF ROCHESTER, priority 2012, dated 2018).
